pKd: −log10 of the molar value. Bridges are numbered along the chain shown (N, C = ends). Roman numbers before positions name the chains, in order. Where no end group is shown, it is not given here.

The assay has as its target Aβ40-1. Put plainly: Competitive ELISA with reversed Aβ (Aβ40-1) as negative control. To be noted: competitive ELISA with biotinylated reverse Aβ40-1; signal only at the highest neurolide concentration; p < 0.0001 versus Aβ1-40. Type of assay: binding. As for the experimental part: NL1 and NL1-derived peptide binding to Aβ was measured by competitive ELISA using the shorter Aβ1-40 peptide with a slower polymerization constant, optimized for this binding assay. Recombinant NL1 (3.125 nM) was immobilized on a poly-sorb 96-well plate (NUNC, Roskilde, Denmark) using sodium bicarbonate buffer (pH 9.6), and left overnight at 4 °C, followed by washing with PBST buffer (PBS supplemented with 0.1% [vol/vol] Tween-20, pH 7.4). In separate tubes, biotinylated Aβ1-40, at final concentration 400 nM, was premixed with serially diluted NL1 or NL1-derived peptides for 30 min. A reversed version of Aβ (Aβ40-1) was used as the respective negative control (Supplementary Fig. 1). After preincubation, the samples were centrifuged at 20,000 × g for 10 min at 4 °C and 100 μl of the mixtures were transferred in triplicates onto the precoated ELISA plate. Plates were incubated at room temperature for 4 h, followed by washing and incubation with streptavidin-HRP conjugate (1:1000, 1 h; Dako, Glostrup, Denmark). The signal was developed with TMB ONE (KEM-EN-TEC, Denmark), and the reaction was terminated with 0.2 M H2SO4. Absorbance was measured at 450 nm on a Wallac VICTOR2 1420 Multilabel Counter (PerkinElmer, Hvidovre, Denmark). […]
On the technique in general: In an ELISA, binding on a coated surface is turned into a signal by an enzyme label.

A word on the pKd: it is −log10 of the Kd, conventionally taken in molar units. A lower pKd goes with a large Kd. Regarding “I: SEGNRWSNSTKGLFQRAKK-NH2 / II: SEGNRWSNSTKGLFQRAK / III: SEGNRWSNSTKGLFQRA / IV: SEGNRWSNSTKGLFQRA (amide I:18-IV:C, I:19-II:C, II:18-III:C; C-terminus assumed) [neurolide]”, the pKd is 5.12.

The values above are taken from PMC11790763, “A Peptide Motif Covering Splice Site B in Neuroligin-1 Binds to Aβ and Acts as a Neprilysin Inhibitor” (Molecular Neurobiology, 2024).
